IC50 data for 15 molecules are collected here from BindingDB's records for doi:10.1016/0968-0896(96)00134-4 (Parke-Davis Pharmaceutical Research, 1996).

The assay concerns the target T1, Dimer of Gag-Pol polyprotein [489-587] (Human immunodeficiency virus 1, UniProt P12497).
T1 construct: 489-587
The experiment in a line: Protease Inhibition Assay. Conditions: 37 °C. How it is done: For determination of IC50 values, HIV-1 protease was added to assay buffer containing inhibitor and the substrate (H-His-Lys-Ala-Arg-Val-Leu- (p-NO2) Phe-Glu-Ala-norleucine-Ser-NH2). The Leu- (p-NO2) Phe bond of the substrate was cleaved by the enzyme, and the substrate and products were separated by reversed-phase HPLC. Absorbance was measured at 220 nm, peak areas were determined, and percentage conversion to product was calculated.

Structures are written as SMILES.

A word on the IC50: it is the concentration that inhibits the measured activity by half. A high value points to weaker potency in that assay. The molecule `O=c1oc(-c2ccccc2)cc(O)c1Sc1ccccc1` returned an IC50 (pH 4.7) of 3000 nM. This lies in the single-digit micromolar range.

With `O=C(CCCCC1CCCCC1)OCC(O)C1OC(=O)C(O)C1=O` (stereo unspecified) [2-(3,4-dihydroxy-5-oxo-2,5-dihydrofuran-2-yl)-2-hydroxyethyl 5-cyclohexylpentanoate], the half-maximal inhibitory concentration (IC50) (pH 4.7) stood at 29000 nM.

In turn, `O=C(O)c1cc(-c2ccc(Cl)cc2)nc2cc(O)ccc12` [2-(4-chlorophenyl)-7-hydroxyquinoline-4-carboxylic acid] registered an IC50 (pH 4.7) of 6900 nM. This IC50 lies about 4.2-fold lower than the previous one.

In turn, `O=C(O)COc1ccc(-c2cc(O)c(SCCc3ccccc3)c(=O)o2)cc1` [2-(4-{4-hydroxy-2-oxo-3-[(2-phenylethyl)sulfanyl]-2H-pyran-6-yl}phenoxy)acetic acid] registered an IC50 (pH 4.7) of 160 nM.

For `O=C(CCc1ccc(Br)cc1)c1ccc(CC(=O)c2ccccc2-c2ccccc2C(=O)O)cc1` [2-[2-(2-{4-[3-(4-bromophenyl)propanoyl]phenyl}acetyl)phenyl]benzoic acid], it took 19000 nM to reach half-maximal inhibition (pH 4.7) (IC50).

In turn, `O=C(O)c1cc(O)c(O)cc1C(=O)c1cc(Cl)ccc1Cl` [2-[(2,5-dichlorophenyl)carbonyl]-4,5-dihydroxybenzoic acid] yielded an IC50 (pH 4.7) of 8100 nM.

For the molecule `O=c1oc(-c2ccccc2)cc(O)c1SCc1ccccc1` [3-(benzylsulfanyl)-4-hydroxy-6-phenyl-2H-pyran-2-one], the half-maximal inhibitory concentration (IC50) (pH 4.7) amounted to 1700 nM. Compared with the last molecule, the IC50 is about 4.8-fold lower.

Molecule `Cc1cccc(-c2cc(O)c(Sc3ccccc3C(C)(C)C)c(=O)o2)c1` [3-[(2-tert-butylphenyl)sulfanyl]-4-hydroxy-6-(3-methylphenyl)-2H-pyran-2-one] had an IC50 (pH 4.7) of 7 nM.

In turn, `CC(C)(C)c1ccccc1Sc1c(O)cc(-c2ccccc2)oc1=O` [3-[(2-tert-butylphenyl)sulfanyl]-4-hydroxy-6-phenyl-2H-pyran-2-one] came in with an IC50 (pH 4.7) of 17 nM.

`O=c1oc2ccccc2c(O)c1Cc1ccccc1` [3-benzyl-4-hydroxy-2H-chromen-2-one]: the IC50 (pH 4.7) stood at 120000 nM.

Where the note is “pH 4.7”, `Cc1ccccc1Sc1c(O)cc(-c2ccccc2)oc1=O` [4-hydroxy-3-[(2-methylphenyl)sulfanyl]-6-phenyl-2H-pyran-2-one] displayed an IC50 of 420 nM. This IC50 is about 290-fold lower than that of the molecule before.

In turn, `O=c1oc(-c2ccc(O)cc2)cc(O)c1SCCc1ccccc1` [4-hydroxy-6-(4-hydroxyphenyl)-3-[(2-phenylethyl)sulfanyl]-2H-pyran-2-one] showed an IC50 (pH 4.7) of 520 nM.

Under “pH 4.7”, `O=c1oc(-c2ccccc2)cc(O)c1SCCc1ccccc1` [4-hydroxy-6-phenyl-3-[(2-phenylethyl)sulfanyl]-2H-pyran-2-one] gave an IC50 of 1300 nM.

Turning to `CC(C)c1ccccc1Sc1c(O)cc(-c2ccccc2)oc1=O` [4-hydroxy-6-phenyl-3-{[2-(propan-2-yl)phenyl]sulfanyl}-2H-pyran-2-one], the IC50 reads like this: (pH 4.7) 37 nM; (pH 6.2) 690 nM.

The molecule `O=c1cc(Cc2cccc(Cl)c2)[nH][nH]1` [5-[(3-chlorophenyl)methyl]-2,3-dihydro-1H-pyrazol-3-one] displayed an IC50 (pH 4.7) of 29000 nM.
